The results in this text go back to patent US9951064B2, “Azaindazole compounds as inhibitors of T790M containing EGFR mutants” (Genentech, Inc., priority 2013, dated 2018).

Test [1] addresses T1, EGFR T790M L858R (Homo sapiens, UniProt P00533, L858R/T790M).
T1 construct: purchased Life Technologies PV4879
The experiment in a line: EGFR T790M L858R biochemical assay (Caliper mobility shift). Particulars: 5 μM ATP; apparent Ki (Morrison fit) converted by Cheng-Prusoff, Km of ATP 1.3 μM. In short, it runs like this:
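Reactions run 30 minutes at room temperature (22 °C), stopped with 80 mM EDTA. Phosphorylated product and substrate separated electrophoretically and quantified by Caliper mobility shift.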

Test [2] concerns the target T2, EGFR del746-750 T790M (Homo sapiens, UniProt P00533, DEL746-750/T790M).
T2 construct: purchased Carna Biosciences 08-528
The experiment in a line: EGFR del746-750 T790M biochemical assay (Caliper mobility shift). Particulars: 5 μM ATP; apparent Ki (Morrison fit) converted by Cheng-Prusoff, Km of ATP 2.1 μM; read-out: EGFR(T790M/d746-750) Ki. In outline:
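Kinase reactions ran 30 min at room temperature (22 °C), then were stopped with 80 mM EDTA. Phosphorylated product and substrate were separated electrophoretically and quantified by Caliper mobility shift.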

Test [3] has as its target T3, phosphor-EGFR in H1975(L585R/T790M) mutant EGFR expressing cells (Homo sapiens, UniProt P00533, L858R/T790M).
T3 construct: host or cells: NCI-H1975
The experiment in a line: H1975 pEGFR MSD cellular assay. Type of test: cell-based. Particulars: NCI-H1975 cells, serum starved, 1 hour compound incubation, pEGFR Tyr1068 MSD; read-out: HI975 pEGFR EC50. In outline:
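NCI-H1975 cells, 30,000/well, serum-starved overnight, then treated 1 hour at 37° C with serially diluted compounds in serum-free medium (0.5% DMSO). Lysates captured on anti-phospho-EGFR plates overnight at 4° C, detected with SULFO-TAG anti-total EGFR by electrochemiluminescence. Inhibition vs untreated controls; EC50 from 4-parameter logistic fit.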

Test [4] concerns H1975 (EGFR T790M/L858R) cell proliferation. Put plainly: H1975 proliferation assay (Cell Titer-Glo). Type of test: cell-based. Particulars: Homo sapiens, NCI-H1975, 72 h, NCI-H1975 cells, 72 hour incubation, read-out: H1975 antiproliferative EC50. Here is the method:
H1975 Proliferation Assays
All cell culture reagents were purchased from Invitrogen/Gibco. Cells are cultured at 37° C. at 5% CO2 and split as recommended by ATCC.

T1 sequence (P00533 25-1210 T790M/L858R): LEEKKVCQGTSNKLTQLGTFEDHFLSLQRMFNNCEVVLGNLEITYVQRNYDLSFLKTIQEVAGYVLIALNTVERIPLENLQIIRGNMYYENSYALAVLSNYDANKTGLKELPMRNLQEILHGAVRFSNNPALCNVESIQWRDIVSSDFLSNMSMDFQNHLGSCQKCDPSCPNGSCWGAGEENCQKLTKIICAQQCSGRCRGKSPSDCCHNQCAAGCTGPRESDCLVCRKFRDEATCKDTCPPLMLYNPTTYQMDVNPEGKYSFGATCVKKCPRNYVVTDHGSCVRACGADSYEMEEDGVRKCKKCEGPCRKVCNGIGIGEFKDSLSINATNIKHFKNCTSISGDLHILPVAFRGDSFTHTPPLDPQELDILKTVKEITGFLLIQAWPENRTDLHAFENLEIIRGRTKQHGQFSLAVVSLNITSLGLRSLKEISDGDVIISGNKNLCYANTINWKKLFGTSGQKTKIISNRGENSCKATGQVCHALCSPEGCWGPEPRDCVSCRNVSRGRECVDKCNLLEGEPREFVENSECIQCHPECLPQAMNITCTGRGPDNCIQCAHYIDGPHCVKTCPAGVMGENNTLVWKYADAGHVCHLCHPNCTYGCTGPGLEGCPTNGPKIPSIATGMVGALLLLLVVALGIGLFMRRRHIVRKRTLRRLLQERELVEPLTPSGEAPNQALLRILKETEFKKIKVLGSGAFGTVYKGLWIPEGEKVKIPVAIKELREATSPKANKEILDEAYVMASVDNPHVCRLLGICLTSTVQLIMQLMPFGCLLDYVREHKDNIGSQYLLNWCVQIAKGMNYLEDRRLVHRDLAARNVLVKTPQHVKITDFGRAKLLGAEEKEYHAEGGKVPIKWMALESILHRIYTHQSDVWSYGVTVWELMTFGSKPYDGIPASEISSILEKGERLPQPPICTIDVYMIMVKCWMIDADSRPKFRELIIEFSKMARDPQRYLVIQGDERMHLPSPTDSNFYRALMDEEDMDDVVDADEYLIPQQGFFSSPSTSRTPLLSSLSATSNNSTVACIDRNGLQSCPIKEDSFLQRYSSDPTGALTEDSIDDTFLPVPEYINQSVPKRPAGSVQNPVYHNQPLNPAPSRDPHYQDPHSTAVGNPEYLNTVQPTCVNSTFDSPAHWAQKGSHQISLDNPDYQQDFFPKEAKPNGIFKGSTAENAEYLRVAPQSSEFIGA
T3 sequence (P00533 25-1210 T790M/L858R): as above
T2 sequence (P00533 with tags, fused parts or gaps DEL746-750/T790M limits assumed): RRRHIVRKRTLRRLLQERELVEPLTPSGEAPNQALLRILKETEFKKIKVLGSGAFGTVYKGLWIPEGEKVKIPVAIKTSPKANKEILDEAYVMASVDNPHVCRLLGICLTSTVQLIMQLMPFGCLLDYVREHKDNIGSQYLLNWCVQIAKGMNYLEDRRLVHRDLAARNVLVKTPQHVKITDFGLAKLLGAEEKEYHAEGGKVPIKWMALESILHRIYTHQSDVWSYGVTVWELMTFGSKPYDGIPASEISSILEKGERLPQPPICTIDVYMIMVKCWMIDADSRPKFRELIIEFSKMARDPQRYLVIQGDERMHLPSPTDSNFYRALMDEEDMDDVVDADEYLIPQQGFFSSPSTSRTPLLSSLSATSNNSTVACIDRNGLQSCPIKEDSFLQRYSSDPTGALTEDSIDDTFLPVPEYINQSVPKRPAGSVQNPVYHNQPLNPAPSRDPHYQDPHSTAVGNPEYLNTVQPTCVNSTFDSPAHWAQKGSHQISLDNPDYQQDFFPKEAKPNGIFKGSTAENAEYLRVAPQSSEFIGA

Consider `CC(C)n1nc(N2CCC(O)C2=O)c2cnc(Nc3ccnc(-c4cnn(S(=O)(=O)C5CC5)c4)n3)cc21` (stereo in doubt) [Example 199, (S)-1-(6-((2-(1-(Cyclopropylsulfonyl)-1H-pyrazol-4-yl)pyrimidin-4-yl)amino)-1-isopropyl-1H-pyrazolo[4,3-c]pyridin-3-yl)-3-hydroxypyrrolidin-2-one], for which the Ki in test [1] and in test [2] was 1.5 nM throughout. Also, the EC50 – broadly, the midpoint of the concentration-response curve – in test [3] was 230 nM; in test [4] it was 630 nM.

For the molecule `COC1CCN(c2nccc(Nc3cc4c(cn3)c(N3CC5(COC5)C3)nn4C(C)C)n2)CC1` [Example 2, 1-Isopropyl-N-(2-(4-methoxypiperdin-1-yl)pyrimidin-4-yl)-3-(2-oxa-6-azaspiro[3.3]heptan-6-yl)-1H-pyrazolo[4,3-c]pyridine-6-amine], the results for the Ki in test [1] and in test [2] were 2.1 nM and 9.7 nM, respectively. The EC50 came to 81.7 nM in test [3] and 388 nM in test [4].

For the molecule `CC(C)n1nc(N2CC3(COC3)C2)c2cnc(Nc3ccnc(N4CCC(O)C(C)(C)C4)n3)cc21` (stereo not drawn) [Example 3, 1-(4-((1-Isopropyl-3-(2-oxa-6-azaspiro[3.3]heptan-6-yl)-1H-pyrazolo[4,3-c]pyridin-6-yl)amino)pyrimidin-2-yl)-3,3-dimethylpiperidin-4-ol], the Ki in test [1] was 1.4 nM; in test [2], 1.6 nM. Besides, the EC50 in test [3] is 38.6 nM; in test [4], 159 nM.

As for `CC(C)n1nc(NCCO)c2cnc(Nc3ccnc(-c4cnn(S(=O)(=O)C5CC5)c4)n3)cc21` [Example 6, 2-((6-((2-(1-(Cyclopropylsulfonyl)-1H-pyrazol-4-yl)pyrimidin-4-yl)amino)-1-isopropyl-1H-pyrazolo[4,3-c]pyridin-3-yl)amino)ethanol], the Ki in test [1] is 0.9 nM; in test [2], 1.2 nM. The EC50 in test [3] came out at 73.8 nM; in test [4], 877 nM.

As for `CC(C)n1nc(N2CCCC2)c2cnc(Nc3ccnc(N4CCC(O)C(C)(C)C4)n3)cc21` (stereo not drawn) [Example 8, 1-(4-((1-Isopropyl-3-(pyrrolidin-1-yl)-1H-pyrazolo[4,3-c]pyridin-6-yl)amino)pyrimidin-2-yl)-3,3-dimethylpiperidin-4-ol], the Ki in test [1] and in test [2] was 1.3 nM in each case. The EC50 in test [3] is 30.3 nM; in test [4] it was 499 nM.

On to `Cc1cn[nH]c1-c1nn(C(C)C)c2cc(Nc3ccnc(N4CCC(O)C(C)(C)C4)n3)ncc12` (stereo not drawn) [Example 10, 1-(4-((1-Isopropyl-3-(4-methyl-1H-pyrazol-5-yl)-1H-pyrazolo[4,3-c]pyridin-6-yl)amino)pyrimidin-2-yl)-3,3-dimethylpiperidin-4-ol], for which the Ki in test [1] came to 7.5 nM; in test [2], 32.4 nM. In addition, the values for the EC50 in test [3] and in test [4] were 349 nM and 1710 nM, respectively.

On to `COC1CCN(c2nccc(Nc3cc4c(cn3)c(N3CCCC3)nn4C(C)C)n2)CC1` [Example 15, 1-Isopropyl-N-(2-(4-methoxypiperidin-1-yl)pyrimidin-4-yl)-3-(pyrrolidin-1-yl)-1H-pyrazolo[4,3-c]pyridin-6-amine], for which the values for the Ki in test [1] and in test [2] were 1.2 nM and 2.8 nM, respectively. Besides, the EC50 was 26.6 nM in test [3] and 380 nM in test [4].

For `CCS(=O)(=O)n1cc(-c2nccc(Nc3cc4c(cn3)c(N3CC(C(=O)N(C)C)C3)nn4C(C)C)n2)cn1` [Example 17, 1-(6-(2-(1-(Ethylsulfonyl)-1H-pyrazol-4-yl)pyrimidin-4-ylamino)-1-isopropyl-1H-pyrazolo[4,3-c]pyridin-3-yl)-N, N-dimethylazetidine-3-carboxamide], the results for the Ki in test [1] and in test [2] were 0.7 nM and 0.8 nM, respectively. Also, the results for the half-maximal effective concentration (EC50) in test [3] and in test [4] were 19.2 nM and 236 nM, respectively.

With `CC(C)n1nc(N2CCC(O)C2)c2cnc(Nc3ccnc(-c4cnn(S(=O)(=O)C5CC5)c4)n3)cc21` (stereo not drawn) [Example 18, 1-(6-(2-(1-(Cyclopropylsulfonyl)-1H-pyrazol-4-yl)pyrimidin-4-ylamino)-1-isopropyl-1H-pyrazolo[4,3-c]pyridin-3-yl) pyrrolidin-3-ol], the Ki in test [1] was 0.8 nM; in test [2], 0.6 nM. Also, the EC50 is 7.5 nM in test [3] and 201 nM in test [4].

For `COC1CCN(c2nccc(Nc3cc4c(cn3)c(N)nn4C[C@H]3CC[C@H](N)CC3)n2)CC1` [Example 24, 1-(4-(Aminocyclohexyl)methyl)-N^6-[2-(4-methoxypiperidin-1-yl)-pyrimidin-4-yl]-1H-pyrazolo[4,3-c]pyridine-3,6-diamine], the figures for the Ki in test [1] and in test [2] were 9.2 nM and 9.8 nM, respectively. Besides, the EC50 was 2060 nM in test [3] and greater than 10000 nM in test [4].

As to `CCC(C)n1nc(N2CCNC2=O)c2cnc(Nc3ccnc(-c4cnn(S(=O)(=O)C5CC5)c4)n3)cc21` (stereo not drawn) [Example 25, 1-(1-(sec-Butyl)-6-((2-(1-(cyclopropylsulfonyl)-1H-pyrazol-4-yl)pyrimidin-4-yl)amino)-1H-pyrazolo[4,3-c]pyridin-3-yl)imidazolidin-2-one], the Ki in test [1] was determined as 1 nM; in test [2] it was 2.5 nM. The concentration for a half-maximal effect (EC50) in test [3] is 38.3 nM; in test [4] it was 138 nM.

With `CC(C)n1nc(NC2COC2)c2cnc(Nc3ccnc(-c4cnn(S(=O)(=O)C5CC5)c4)n3)cc21` [Example 35, N^6-(2-(1-(cyclopropylsulfonyl)-1H-pyrazol-4-yl)pyrimidin-4-yl)-1-isopropyl-N^3-(oxetan-3-yl)-1H-pyrazolo[4,3-c]pyridine-3,6-diamine], the Ki came to 0.7 nM in test [1] and 0.5 nM in test [2]. The EC50 in test [3] is 33.5 nM; in test [4], 167 nM.

`CC(C)n1nc(N2CC(O)C2)c2cnc(Nc3ccnc(-c4cnn(S(=O)(=O)C5CC5)c4)n3)cc21` [Example 37, 1-(6-(2-(1-(cyclopropylsulfonyl)-1H-pyrazol-4-yl)pyrimidin-4-ylamino)-1-isopropyl-1H-pyrazolo[4,3-c]pyridin-3-yl)azetidin-3-ol]: the Ki in test [1] amounted to 1.4 nM; in test [2], 0.8 nM. Besides, the results for the concentration for a half-maximal effect (EC50) in test [3] and in test [4] were 91.7 nM and 1120 nM, respectively.

For `CCS(=O)(=O)n1cc(-c2nccc(Nc3cc4c(cn3)c(NC3CCOC3)nn4C(C)C)n2)cn1` (stereo not drawn) [Example 38, N6-(2-(1-(ethylsulfonyl)-1H-pyrazol-4-yl)pyrimidin-4-yl)-1-isopropyl-N3-(tetrahydrofuran-3-yl)-1H-pyrazolo[4,3-c]pyridine-3,6-diamine], the Ki is 1.1 nM in test [1] and 2.4 nM in test [2]. Also, the EC50 in test [3] was determined as 40.8 nM; in test [4], 272 nM.

As to `CC(C)n1nc(N2CCOC(CO)C2)c2cnc(Nc3ccnc(-c4cnn(S(=O)(=O)C5CC5)c4)n3)cc21` (stereo not drawn) [Example 53, (4-(6-(2-(1-(cyclopropylsulfonyl)-1H-pyrazol-4-yl)pyrimidin-4-ylamino)-1-isopropyl-1H-pyrazolo[4,3-c]pyridin-3-yl)morpholin-2-yl)methanol], the results for the Ki in test [1] and in test [2] were 1.2 nM and 0.9 nM, respectively. Besides, the EC50 in test [3] turned out to be 53.6 nM; in test [4] it was 241 nM.

Take `CC(C)n1nc(N2CCC2)c2cnc(Nc3ccnc(-c4cnn(S(=O)(=O)C5CC5)c4)n3)cc21` [Example 54, 3-(azetidin-1-yl)-N-(2-(1-(cyclopropylsulfonyl)-1H-pyrazol-4-yl)pyrimidin-4-yl)-1-isopropyl-1H-pyrazolo[4,3-c]pyridin-6-amine]: the Ki stood at 0.7 nM in test [1] and 0.5 nM in test [2]. In addition, the EC50 in test [3] was 17.9 nM; in test [4], 158 nM.

As for `CC(C)n1nc(N2CCNC(=O)C2)c2cnc(Nc3ccnc(-c4cnn(S(=O)(=O)C5CC5)c4)n3)cc21` [Example 59, 4-(6-(2-(1-(cyclopropylsulfonyl)-1H-pyrazol-4-yl)pyrimidin-4-ylamino)-1-isopropyl-1H-pyrazolo[4,3-c]pyridin-3-yl)piperazin-2-one], the Ki was less than 0.6 nM in test [1] and 0.5 nM in test [2]. For the same molecule, the values for the EC50 in test [3] and in test [4] were 92.1 nM and 738 nM, respectively.

Regarding `CC(C)n1nc(N2CC(CO)C2)c2cnc(Nc3ccnc(-c4cnn(S(=O)(=O)C5CC5)c4)n3)cc21` [Example 63, (1-(6-(2-(1-(cyclopropylsulfonyl)-1H-pyrazol-4-yl)pyrimidin-4-ylamino)-1-isopropyl-1H-pyrazolo[4,3-c]pyridin-3-yl)azetidin-3-yl)methanol], the Ki in test [1] is less than 0.6 nM; in test [2] it was 0.5 nM. For the same molecule, the EC50 was 18.5 nM in test [3] and 271 nM in test [4].
